This passage reports IC50 results from patent publication US20240132489A1, “AROMATIC HETEROCYCLIC COMPOUND, PHARMACEUTICAL COMPOSITION, AND USE THEREOF” (GT APEIRON THERAPEUTICS LIMITED, priority 2020, published 2024).

In one assay the test system is HCC70 cells. Briefly: Cell bioactivity detection (CyQuant), HCC70. Type of assay: cell-based. The note with it: Homo sapiens, HCC70, 72 h, human breast cancer cells HCC70, 72 hours. The method, then:
(§1) Trypsinization was performed on A2780 and HCC70 cells. Cell suspensions were respectively transferred to 15 mL of centrifuge tubes and centrifuged at 800 rpm for 5 min. The supernatant was discarded. Resuspension in a fresh culture medium (RPMI 1640+10% FBS) was performed. After counting, the cells were inoculated at 2000/well in a 384-well plate (50 φL of 1640+10% FBS culture medium was added to the 2nd line and the 23rd line of the 384-well plate, and 50 μL of DPBS was added to surrounding wells). Incubation in an incubator (37° C., 5% CO2) was performed overnight.
(§2) The compound was added to the well plate the next day. The compound had the highest concentration of 10 μM and was diluted at the ratio of 1:4 to form 9 concentrations. The positive compound Paclitaxel had the highest concentration of 1 μM and was diluted at the ratio of 1:3 to form 9 concentrations. The DMSO content of each well was unified to 0.2%. A cell plate was centrifuged at 800 rpm for 30 seconds. Incubation for 72 hours in an incubator (37° C., 5% CO2) was performed. On the fourth day, a Cyquant reagent (3×) was prepared according to kit instructions. Each 384-well plate was prepared in the following proportions: DPBS: 11.568 mL, CyQuant® Direct nucleic acid stain: 72 μL, CyQuant® Direct background suppressor: 360 ILL. The plates were uniformly mixed and placed for standby application at room temperature. The cell plate was taken out and placed at room temperature to be balanced for 30 min. 25 μL of Cyquant reagent (3×) was dispensed to the cells in each well of the 384-well plates by using a Multi-drop dispenser. Incubation at 37° C. for 60 or more minutes was performed. The plates were read by Acumen (Acumen was configured to have a 488 nm excitation wavelength). IC50 results were analyzed by XLFIT5 of the IDBS company.

The test system of the next assay is A2780 cells. Briefly: Cell bioactivity detection (CyQuant), A2780. The class given is cell-based, human. The note with it: Homo sapiens, A2780, 72 h, ovarian carcinoma cells A2780, 72 hours. The method, then:
as §1, §2

Assay [1] addresses CDK12(aa686-1082)/cyclin K complex (Homo sapiens (Human), UniProt Q9NYV4). Briefly: In vitro enzymatic inhibitory activity test, CDK12. The note with it: Caliper mobility shift, 180 min at 27° C. Type of assay: biochemical. As to the method: (§3) CDK7/CyclinH was diluted in a test buffer solution (20 mM MES PH6.75, 0.01% Tween20, 50 ug/mL BSA, 6 mM MgCl2) to obtain a corresponding enzyme solution with a 2.4× concentration. CDK2/CyclinE1 was diluted in a test buffer solution (20 mM MES PH6.75, 0.01% Tween20, 50 ug/mL BSA, 6 mM MgCl2) to obtain a corresponding enzyme solution with a 2.4× concentration. CDK9/CyclinT1 was diluted in a test buffer solution (20 mM MES PH6.75, 0.01% Tween20, 50 ug/mL BSA, 10 mM MgCl2) to obtain a corresponding enzyme solution with a 2.4× concentration. CDK12/CyclinK was diluted in a test buffer solution (80 mM MES PH6.5, 0.01% Tween20, 50 ug/mL BSA, 10 mM MgCl2) to obtain a corresponding enzyme solution with a 2.4× concentration. The compounds were dissolved in dimethyl sulfoxide (DMSO) at a concentration of 10 mM. […] 2 ul of a test compound solution was mixed with 5 ul of enzyme solution. After incubating for 10 min, 5 ul of the mixed solution of the polypeptide substrate and ATP was added. After incubating at 27° C. for 180 min, 4 uL of EDTA with a 120 mM concentration was added to each sample to stop the reaction. […] A CDK9/cyclin TI complex (8 nM) and a “5-FAM-CDK9tide” peptide substrate (2 μM, synthetic fluorophore labeled peptide having the following sequence: 5-FAM-GSRTPMY-NH2, where 5-FAM was as defined above, and NH2 represented C-terminal amide) were used for testing the CDK9 inhibition. […] A CDK2/cyclin E1 complex (0.5 nM) and the “5-FAM-CDK7tide” (2 μM) as defined above were used for testing the CDK2 inhibition.
(§4) Electrophoretic separation was performed on Caliper EZ Reader II by means of a fluorogenic substrate and a phosphorylated product to analyze the reaction mixture. Data were calculated by using GraphPad Prism version 6.0. IC50 values were adjusted by means of a nonlinear regression model using a dose-response curve.

A further assay deals with CDK2/cyclin E1 complex (Homo sapiens (Human), UniProt P24941). Put plainly: In vitro enzymatic inhibitory activity test, CDK2. Type of assay: biochemical. The note with it: Caliper mobility shift, 180 min at 27° C. The method, then:
CDK7/CyclinH was diluted in a test buffer solution (20 mM MES PH6.75, 0.01% Tween20, 50 ug/mL BSA, 6 mM MgCl2) to obtain a corresponding enzyme solution with a 2.4× concentration. CDK2/CyclinE1 was diluted in a test buffer solution (20 mM MES PH6.75, 0.01% Tween20, 50 ug/mL BSA, 6 mM MgCl2) to obtain a corresponding enzyme solution with a 2.4× concentration. CDK9/CyclinT1 was diluted in a test buffer solution (20 mM MES PH6.75, 0.01% Tween20, 50 ug/mL BSA, 10 mM MgCl2) to obtain a corresponding enzyme solution with a 2.4× concentration. CDK12/CyclinK was diluted in a test buffer solution (80 mM MES PH6.5, 0.01% Tween20, 50 ug/mL BSA, 10 mM MgCl2) to obtain a corresponding enzyme solution with a 2.4× concentration. […] 2 ul of a test compound solution was mixed with 5 ul of enzyme solution. After incubating for 10 min, 5 ul of the mixed solution of the polypeptide substrate and ATP was added. After incubating at 27° C. for 180 min, 4 uL of EDTA with a 120 mM concentration was added to each sample to stop the reaction. […] A CDK9/cyclin TI complex (8 nM) and a “5-FAM-CDK9tide” peptide substrate (2 μM, synthetic fluorophore labeled peptide having the following sequence: 5-FAM-GSRTPMY-NH2, where 5-FAM was as defined above, and NH2 represented C-terminal amide) were used for testing the CDK9 inhibition. […] A CDK2/cyclin E1 complex (0.5 nM) and the “5-FAM-CDK7tide” (2 μM) as defined above were used for testing the CDK2 inhibition.
as §4

Assay [2] has as its target CDK7/cyclin H/MAT1 complex (Homo sapiens (Human), UniProt P50613). Briefly: In vitro enzymatic inhibitory activity test, CDK7. The class given is biochemical. The note with it: Caliper mobility shift, 180 min at 27° C. The method, then: as §3, §4
In the next assay the target is CDK9/CyclinT1 (Homo sapiens (Human), UniProt P50750). Briefly: In vitro enzymatic inhibitory activity test, CDK9. Type of assay: biochemical. The note with it: Caliper mobility shift, 180 min at 27° C. The method, then:
as §3, §4

Each structure is given as a SMILES string.

Chain of CDK7/cyclin H/MAT1 complex (P50613 whole entry, species assumed): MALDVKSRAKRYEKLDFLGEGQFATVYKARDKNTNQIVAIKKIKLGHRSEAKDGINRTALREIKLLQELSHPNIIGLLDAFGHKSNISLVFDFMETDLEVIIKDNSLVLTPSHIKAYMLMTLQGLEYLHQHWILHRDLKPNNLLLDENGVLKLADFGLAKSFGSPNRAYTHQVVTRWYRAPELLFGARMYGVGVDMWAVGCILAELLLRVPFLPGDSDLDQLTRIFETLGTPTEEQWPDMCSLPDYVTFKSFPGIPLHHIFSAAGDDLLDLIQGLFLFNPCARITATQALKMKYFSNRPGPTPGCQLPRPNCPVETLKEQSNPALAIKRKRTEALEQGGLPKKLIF
Chain of CDK7/cyclin H/MAT1 complex (P51946 whole entry partner, species assumed): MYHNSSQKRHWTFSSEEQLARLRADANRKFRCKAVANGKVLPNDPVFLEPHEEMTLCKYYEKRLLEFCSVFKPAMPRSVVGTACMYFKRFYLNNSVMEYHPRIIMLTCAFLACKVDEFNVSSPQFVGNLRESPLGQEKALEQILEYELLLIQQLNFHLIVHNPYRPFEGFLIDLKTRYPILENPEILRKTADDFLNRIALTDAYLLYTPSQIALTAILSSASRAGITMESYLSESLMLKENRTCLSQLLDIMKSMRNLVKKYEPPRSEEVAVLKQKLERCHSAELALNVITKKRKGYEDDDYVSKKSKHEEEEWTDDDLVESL
Chain of CDK7/cyclin H/MAT1 complex (P51948 whole entry partner, species assumed): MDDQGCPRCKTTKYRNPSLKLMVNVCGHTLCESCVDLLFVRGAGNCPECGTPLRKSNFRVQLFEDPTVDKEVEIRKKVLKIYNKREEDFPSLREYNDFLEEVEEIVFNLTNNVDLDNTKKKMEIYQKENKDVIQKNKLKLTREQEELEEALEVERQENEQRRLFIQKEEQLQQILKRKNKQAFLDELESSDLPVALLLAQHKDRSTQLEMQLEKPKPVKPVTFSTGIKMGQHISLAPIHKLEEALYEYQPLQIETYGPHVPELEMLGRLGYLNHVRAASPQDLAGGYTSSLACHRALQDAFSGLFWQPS
Chain of CDK12(aa686-1082)/cyclin K complex (Q9NYV4 686-1082, species assumed): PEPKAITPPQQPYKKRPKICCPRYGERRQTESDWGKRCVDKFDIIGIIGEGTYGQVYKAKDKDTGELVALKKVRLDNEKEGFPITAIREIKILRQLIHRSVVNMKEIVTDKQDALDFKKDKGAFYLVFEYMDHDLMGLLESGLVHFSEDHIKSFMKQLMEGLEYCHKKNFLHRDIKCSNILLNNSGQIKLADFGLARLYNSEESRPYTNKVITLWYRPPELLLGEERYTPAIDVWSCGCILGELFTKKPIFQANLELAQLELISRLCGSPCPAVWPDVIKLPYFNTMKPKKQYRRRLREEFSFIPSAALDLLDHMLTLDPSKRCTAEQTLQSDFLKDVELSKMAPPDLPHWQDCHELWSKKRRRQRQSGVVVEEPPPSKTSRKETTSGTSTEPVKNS
Chain of CDK12(aa686-1082)/cyclin K complex (O75909 whole entry partner, species assumed, the tested form may be a part): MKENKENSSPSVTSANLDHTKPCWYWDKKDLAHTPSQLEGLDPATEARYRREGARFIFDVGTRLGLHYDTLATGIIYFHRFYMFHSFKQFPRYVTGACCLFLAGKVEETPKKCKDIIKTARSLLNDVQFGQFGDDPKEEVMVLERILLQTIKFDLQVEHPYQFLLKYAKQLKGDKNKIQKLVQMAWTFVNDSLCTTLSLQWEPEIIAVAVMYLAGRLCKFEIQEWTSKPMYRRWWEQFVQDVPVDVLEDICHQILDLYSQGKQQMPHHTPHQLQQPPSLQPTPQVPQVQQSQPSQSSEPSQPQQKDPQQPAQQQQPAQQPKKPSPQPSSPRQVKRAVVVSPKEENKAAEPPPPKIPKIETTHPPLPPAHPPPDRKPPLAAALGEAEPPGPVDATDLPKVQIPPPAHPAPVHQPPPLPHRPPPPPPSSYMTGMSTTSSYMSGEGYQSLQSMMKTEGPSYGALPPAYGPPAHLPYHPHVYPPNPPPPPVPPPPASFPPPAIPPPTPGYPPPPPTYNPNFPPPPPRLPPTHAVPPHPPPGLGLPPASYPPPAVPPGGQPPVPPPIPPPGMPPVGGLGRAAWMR
Chain of CDK9/CyclinT1 (P50750 whole entry, species assumed): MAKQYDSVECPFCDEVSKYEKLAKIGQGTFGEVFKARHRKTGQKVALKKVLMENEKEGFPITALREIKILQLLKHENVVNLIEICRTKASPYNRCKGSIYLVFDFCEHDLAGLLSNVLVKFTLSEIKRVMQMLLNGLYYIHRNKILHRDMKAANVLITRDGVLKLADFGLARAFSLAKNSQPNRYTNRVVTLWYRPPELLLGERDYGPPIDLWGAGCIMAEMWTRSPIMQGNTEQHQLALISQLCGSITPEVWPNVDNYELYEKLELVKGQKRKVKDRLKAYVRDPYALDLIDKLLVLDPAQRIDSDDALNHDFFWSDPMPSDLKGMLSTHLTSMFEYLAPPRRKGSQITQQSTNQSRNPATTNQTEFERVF
Chain of CDK9/CyclinT1 (O60563 whole entry partner, species assumed): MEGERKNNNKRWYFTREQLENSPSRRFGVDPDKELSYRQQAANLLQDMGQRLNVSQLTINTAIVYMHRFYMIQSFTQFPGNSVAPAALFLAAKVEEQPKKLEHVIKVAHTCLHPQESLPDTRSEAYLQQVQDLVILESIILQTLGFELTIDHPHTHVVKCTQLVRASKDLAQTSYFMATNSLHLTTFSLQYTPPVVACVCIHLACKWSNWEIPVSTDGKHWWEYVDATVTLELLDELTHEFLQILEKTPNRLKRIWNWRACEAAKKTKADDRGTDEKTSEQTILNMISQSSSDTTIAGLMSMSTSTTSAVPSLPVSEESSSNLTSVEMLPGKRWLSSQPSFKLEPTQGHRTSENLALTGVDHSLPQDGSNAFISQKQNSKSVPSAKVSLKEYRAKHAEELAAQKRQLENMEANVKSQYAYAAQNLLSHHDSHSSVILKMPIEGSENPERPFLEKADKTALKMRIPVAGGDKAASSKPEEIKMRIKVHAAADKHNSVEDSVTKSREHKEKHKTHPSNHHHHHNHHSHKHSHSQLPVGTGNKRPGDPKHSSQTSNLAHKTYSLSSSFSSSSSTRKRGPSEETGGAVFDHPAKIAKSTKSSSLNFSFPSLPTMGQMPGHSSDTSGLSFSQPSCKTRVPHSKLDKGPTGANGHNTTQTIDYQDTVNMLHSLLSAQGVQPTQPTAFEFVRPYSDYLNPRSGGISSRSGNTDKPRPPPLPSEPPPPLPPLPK

Turning to `C[C@H]1COCCN1c1ccc2c(-c3nc(N[C@H]4CCCNC4)ncc3C(F)(F)F)c[nH]c2n1` [Compound 18, 4-(6-((S)-3-methylmorpholinyl)-1H-pyrrolo[2,3-b]pyridin-3-yl)-N—((S)-piperidin-3-yl)-5-(trifluoromethyl)pyrimidine-2-amine], the IC50 was found to be 6.7 nM in the assay on HCC70 cells; 7.2 nM in the assay on A2780 cells; 2290 nM in assay [1]; 6560 nM at CDK2/cyclin E1 complex; 9.47 nM in assay [2]; 2870 nM at CDK9/CyclinT1.
With `C[C@@H]1COCCN1c1ccc2c(-c3nc(N[C@H]4CCCNC4)ncc3C(F)(F)F)c[nH]c2n1` [Compound 19, 4-(6-((R)-3-methylmorpholinyl)-1H-pyrrolo[2,3-b]pyridin-3-yl)-N—((S)-piperidin-3-yl)-5-(trifluoromethyl)pyrimidine-2-amine], the IC50 in the assay on HCC70 cells was 220 nM; in the assay with A2780 cells it was 185 nM; in assay [1], 8720 nM; on CDK2/cyclin E1 complex it was greater than 10000 nM; in assay [2], 159 nM; on CDK9/CyclinT1, greater than 10000 nM.
With `N#CC1CCN(c2ccc3c(-c4nc(N[C@H]5CCCNC5)ncc4C(F)(F)F)c[nH]c3n2)CC1` [Compound 20, (S)-1-(3-(2-(piperidine-3-amino)-5-(trifluoromethyl)pyrimidin-4-yl)-1H-pyrrolo[2,3-b]pyridin-6-yl)piperidine-4-nitrile], the IC50 in the assay with HCC70 cells amounted to 13.7 nM; with A2780 cells, 8.3 nM; in assay [1], 765 nM; at CDK2/cyclin E1 complex, 3280 nM; in assay [2] it was 8.43 nM; on CDK9/CyclinT1, 2970 nM.
Turning to `CC1(C#N)CN(c2ccc3c(-c4nc(N[C@H]5CCCNC5)ncc4C(F)(F)F)c[nH]c3n2)C1` [Compound 21, (S)-3-methyl-1-(3-(2-(piperidine-3-amino)-5-(trifluoromethyl)pyrimidin-4-yl)-1H-pyrrolo[2,3-b]pyridin-6-yl)azetidine-3-formonitrile], the IC50 in the assay with HCC70 cells stood at 27.8 nM; with A2780 cells it was 19 nM; in assay [1], 818 nM; on CDK2/cyclin E1 complex, 4330 nM; in assay [2], 8.81 nM; on CDK9/CyclinT1 it was 2980 nM.
Regarding `FC(F)(F)c1cnc(N[C@H]2CCCNC2)nc1-c1c[nH]c2nc(N3CCCOCC3)ccc12` [Compound 22, (S)-4-(6-(1,4-oxazepan-4-yl)-1H-pyrrolo[2,3-b]pyridin-3-yl)-N-(piperidin-3-yl)-5-(trifluoromethyl)pyrimidine-2-amine], the IC50 with HCC70 cells was found to be 10.7 nM; with A2780 cells, 4.7 nM; in assay [1], 783 nM; on CDK2/cyclin E1 complex it was 3050 nM; in assay [2] it was 7.05 nM; at CDK9/CyclinT1, 2860 nM.
In the case of `CC1(O)CCN(c2ccc3c(-c4nc(N[C@H]5CCCNC5)ncc4C(F)(F)F)c[nH]c3n2)CC1` [Compound 23, (S)-4-methyl-1-(3-(2-(piperidine-3-amino)-5-(trifluoromethyl)pyrimidin-4-yl)-1H-pyrrolo[2,3-b]pyridin-6-yl)piperidin-4-ol], the IC50 in the assay on HCC70 cells amounted to 19.9 nM; with A2780 cells, 8.8 nM; in assay [1] it was 783 nM; on CDK2/cyclin E1 complex, 4310 nM; in assay [2], 13.1 nM; on CDK9/CyclinT1, 2610 nM.
On to `FC(F)(F)c1cnc(N[C@H]2CCCNC2)nc1-c1c[nH]c2nc(N3CCN(C4COC4)CC3)ccc12` [Compound 24, (S)-4-(6-(4-(oxetan-3-yl)piperazin-1-yl)-1H-pyrrolo[2,3-b]pyridin-3-yl)-N-(piperidin-3-yl)-5-(trifluoromethyl)pyrimidine-2-amine], for which the IC50 in the assay on HCC70 cells was determined as 72 nM; in the assay on A2780 cells it was 110 nM; in assay [1] it was 1970 nM; on CDK2/cyclin E1 complex, 8500 nM; in assay [2], 17.4 nM; on CDK9/CyclinT1, 5250 nM.
As for `O=S1(=O)CCN(c2ccc3c(-c4nc(N[C@H]5CCCNC5)ncc4C(F)(F)F)c[nH]c3n2)CC1` [Compound 25, (S)-4-(3-(2-(piperidine-3-amino)-5-(trifluoromethyl)pyrimidin-4-yl)-1H-pyrrolo[2,3-b]pyridin-6-yl)thiomorpholine-1,1-dioxide], the IC50 in the assay with HCC70 cells was 11 nM; with A2780 cells, 7.9 nM; in assay [1], 277 nM; on CDK2/cyclin E1 complex, 1040 nM; in assay [2], 6.5 nM; at CDK9/CyclinT1, 402 nM.
Turning to `C[C@H]1COCCN1c1ccc2c(-c3nc(N[C@H]4CCC(C)(C)NC4)ncc3C(F)(F)F)c[nH]c2n1` [Compound 26, N—((S)-6,6-dimethylpiperidin-3-yl)-4-(6-((S)-3-methylmorpholinyl)-1H-pyrrolo[2,3-b]pyridin-3-yl)-5-(trifluoromethyl)pyrimidine-2-amine], the IC50 in the assay on HCC70 cells is 52 nM; in the assay on A2780 cells, 30 nM; in assay [1], greater than 10000 nM; on CDK2/cyclin E1 complex, greater than 10000 nM; in assay [2], 9.5 nM; at CDK9/CyclinT1, greater than 10000 nM.
`FC(F)(F)c1cnc(N[C@H]2CCCNC2)nc1-c1c[nH]c2nc(C3=CCOCC3)ccc12` [Compound 27, (S)-4-(6-(3,6-dihydro-2H-pyran-4-yl)-1H-pyrrolo[2,3-b]pyridin-3-yl)-N-(piperidin-3-yl)-5-(trifluoromethyl)pyrimidine-2-amine]: the IC50 in the assay with HCC70 cells amounted to 30 nM; in the assay on A2780 cells, 5.1 nM; in assay [1], 418 nM; at CDK2/cyclin E1 complex, 1120 nM; in assay [2], 2.17 nM; on CDK9/CyclinT1, 1500 nM.
